Assay results: ChEMBL document CHEMBL1201861, “Genomics of Drug Sensitity in Cancer screening data, Wellcome Trust Sanger Institute”

Legend:
Assay in all cases: cells
Type in all cases: functional, cell-based
[1] = tested on: NCI-H1573; conditions: Homo sapiens;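 further: growth inhibition of NCI-H1573 cells, read out with a cell viability assay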
Description: SANGER: Inhibition of human NCI-H1573 cell growth in a cell viability assay.

[2] = tested on: NB12; conditions: Homo sapiens;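 further: growth inhibition of human NB12 cells, read out by a cell viability assay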
Description: SANGER: Inhibition of human NB12 cell growth in a cell viability assay.

[3] = tested on: PC-14; conditions: Homo sapiens;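 further: cell viability assay measuring inhibition of PC-14 cell growth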
Description: SANGER: Inhibition of human PC-14 cell growth in a cell viability assay.

[4] = tested on: Ca-Ski; conditions: Homo sapiens;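 further: cell viability assay measuring inhibition of Ca-Ski cell growth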
Description: SANGER: Inhibition of human Ca-Ski cell growth in a cell viability assay.

[5] = tested on: A2780; conditions: Homo sapiens;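 further: growth inhibition of A2780 cells, read out with a cell viability assay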
Description: SANGER: Inhibition of human A2780 cell growth in a cell viability assay.

[6] = tested on: NCI-H1623; conditions: Homo sapiens;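 further: cell viability assay used as the read-out for growth inhibition of NCI-H1623 cells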
Description: SANGER: Inhibition of human NCI-H1623 cell growth in a cell viability assay.

[7] = tested on: BXPC-3; conditions: Homo sapiens;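 further: growth inhibition of human BxPC-3 cells, read out by a cell viability assay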
Description: SANGER: Inhibition of human BxPC-3 cell growth in a cell viability assay.

[8] = tested on: NB14; conditions: Homo sapiens;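 further: growth inhibition of NB14 cells measured with a cell viability assay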
Description: SANGER: Inhibition of human NB14 cell growth in a cell viability assay.

[9] = tested on: HCC1395; conditions: Homo sapiens;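 further: growth inhibition of HCC1395 cells, read out by a cell viability assay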
Description: SANGER: Inhibition of human HCC1395 cell growth in a cell viability assay.

[10] = tested on: NCI-H1437; conditions: Homo sapiens;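 further: growth inhibition of human NCI-H1437 cells, read out by a cell viability assay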
Description: SANGER: Inhibition of human NCI-H1437 cell growth in a cell viability assay.

[11] = tested on: OVCAR-5; conditions: Homo sapiens;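 further: growth inhibition of human OVCAR-5 cells, read out with a cell viability assay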
Description: SANGER: Inhibition of human OVCAR-5 cell growth in a cell viability assay.

[12] = tested on: A-427; conditions: Homo sapiens;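 further: growth inhibition of human A-427 cells, read out by a cell viability assay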
Description: SANGER: Inhibition of human A427 cell growth in a cell viability assay.

[13] = tested on: BHY; conditions: Homo sapiens;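 further: cell growth inhibition read out by a viability assay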
Description: SANGER: Inhibition of human BHY cell growth in a cell viability assay.

[14] = tested on: A-375; conditions: Homo sapiens;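 further: growth inhibition of A375 cells, read out with a cell viability assay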
Description: SANGER: Inhibition of human A375 cell growth in a cell viability assay.

[15] = tested on: LoVo; conditions: Homo sapiens;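 further: growth inhibition of human LoVo cells, read out with a cell viability assay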
Description: SANGER: Inhibition of human LoVo cell growth in a cell viability assay.

[16] = tested on: DK-MG; conditions: Homo sapiens;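 further: growth inhibition of DK-MG cells, read out with a cell viability assay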
Description: SANGER: Inhibition of human DK-MG cell growth in a cell viability assay.

[17] = tested on: Daoy; conditions: Homo sapiens;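 further: daoy cell growth inhibition, read out as cell viability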
Description: SANGER: Inhibition of human Daoy cell growth in a cell viability assay.

[18] = tested on: SN12C; conditions: Homo sapiens;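 further: growth inhibition of human SN12C cells, measured by a cell viability assay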
Description: SANGER: Inhibition of human SN12C cell growth in a cell viability assay.

[19] = tested on: MeWo; conditions: Homo sapiens;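 further: growth inhibition of MeWo cells, determined by a cell viability readout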
Description: SANGER: Inhibition of human Mewo cell growth in a cell viability assay.

[20] = tested on: NCI-H522; conditions: Homo sapiens;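 further: cell viability assay measuring growth inhibition of human NCI-H522 cells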
Description: SANGER: Inhibition of human NCI-H522 cell growth in a cell viability assay.

[21] = tested on: LCLC-103H cell line; conditions: Homo sapiens
Description: SANGER: Inhibition of human LCLC-103H cell growth in a cell viability assay.

[22] = tested on: HSC-3; conditions: Homo sapiens
Description: SANGER: Inhibition of human HSC-3 cell growth in a cell viability assay.

[23] = tested on: CAL-39; conditions: Homo sapiens;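 further: cell viability assay measuring growth inhibition of CAL-39 cells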
Description: SANGER: Inhibition of human CAL-39 cell growth in a cell viability assay.

[24] = tested on: OVCAR-3; conditions: Homo sapiens;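 further: growth inhibition of human OVCAR-3 cells, determined by a cell viability assay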
Description: SANGER: Inhibition of human OVCAR-3 cell growth in a cell viability assay.

[25] = tested on: J82; conditions: Homo sapiens;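 further: growth inhibition of J82 cells, read out with a cell viability assay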
Description: SANGER: Inhibition of human J82 cell growth in a cell viability assay.

[26] = tested on: NUGC-3; conditions: Homo sapiens;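 further: growth inhibition of human NUGC-3 cells, read out with a cell viability assay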
Description: SANGER: Inhibition of human NUGC-3 cell growth in a cell viability assay.

[27] = tested on: T47D; conditions: Homo sapiens;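 further: growth inhibition of human T47D cells, measured with a cell viability assay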
Description: SANGER: Inhibition of human T47D cell growth in a cell viability assay.

[28] = tested on: CHL-1; conditions: Homo sapiens;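 further: cell growth inhibition, read out with a cell viability assay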
Description: SANGER: Inhibition of human CHL-1 cell growth in a cell viability assay.

[29] = tested on: NCI-H727; conditions: Homo sapiens;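 further: growth inhibition of human NCI-H727 cells, read out with a cell viability assay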
Description: SANGER: Inhibition of human NCI-H727 cell growth in a cell viability assay.

[30] = tested on: HSC-2; conditions: Homo sapiens;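 further: growth inhibition of human HSC-2 cells, read out by a cell viability assay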
Description: SANGER: Inhibition of human HSC-2 cell growth in a cell viability assay.

[31] = tested on: AU565; conditions: Homo sapiens;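 further: cell viability assay measuring growth inhibition of human AU565 cells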
Description: SANGER: Inhibition of human AU565 cell growth in a cell viability assay.

[32] = tested on: OAW-42; conditions: Homo sapiens;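 further: growth inhibition of OAW-42 cells, read out with a cell viability assay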
Description: SANGER: Inhibition of human OAW-42 cell growth in a cell viability assay.

[33] = tested on: NCI-H1563; conditions: Homo sapiens;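 further: growth inhibition of human NCI-H1563 cells, read out with a cell viability assay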
Description: SANGER: Inhibition of human NCI-H1563 cell growth in a cell viability assay.

[34] = tested on: NCI-N87; conditions: Homo sapiens;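 further: growth inhibition of human NCI-N87 cells, read out with a cell viability assay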
Description: SANGER: Inhibition of human NCI-N87 cell growth in a cell viability assay.

[35] = tested on: D-542MG; conditions: Homo sapiens
Description: SANGER: Inhibition of human D-542MG cell growth in a cell viability assay.

[36] = tested on: SK-MES-1; conditions: Homo sapiens;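 further: growth inhibition of human SK-MES-1 cells, read out with a cell viability assay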
Description: SANGER: Inhibition of human SK-MES-1 cell growth in a cell viability assay.

[37] = tested on: COLO-679; conditions: Homo sapiens
Description: SANGER: Inhibition of human COLO-679 cell growth in a cell viability assay.

[38] = tested on: CWR22R; conditions: Homo sapiens, 22Rv1;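 further: growth inhibition of 22Rv1 cells, read out with a cell viability assay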
Description: SANGER: Inhibition of human 22RV1 cell growth in a cell viability assay.

[39] = tested on: MDA-MB-231; conditions: Homo sapiens
Description: SANGER: Inhibition of human MDA-MB-231 cell growth in a cell viability assay.

[40] = tested on: G-361; conditions: Homo sapiens
[41] = tested on: HCC1937; conditions: Homo sapiens;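 further: growth inhibition measured with a cell viability read-out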
Description: SANGER: Inhibition of human HCC1937 cell growth in a cell viability assay.

[42] = tested on: MDA-MB-157; conditions: Homo sapiens
Description: SANGER: Inhibition of human MDA-MB-157 cell growth in a cell viability assay.

[43] = tested on: SW1990; conditions: Homo sapiens;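 further: cell growth inhibition determined with a viability assay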
Description: SANGER: Inhibition of human SW1990 cell growth in a cell viability assay.

[44] = tested on: C-33-A; conditions: Homo sapiens;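 further: cell viability assay measuring growth inhibition of C-33-A cells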
Description: SANGER: Inhibition of human C-33-A cell growth in a cell viability assay.

[45] = tested on: NCI-H441; conditions: Homo sapiens;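 further: growth inhibition of NCI-H441 cells, read out with a cell viability assay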
Description: SANGER: Inhibition of human NCI-H441 cell growth in a cell viability assay.

[46] = tested on: HT-1080; conditions: Homo sapiens
Description: SANGER: Inhibition of human HT-1080 cell growth in a cell viability assay.

[47] = tested on: U-251; conditions: Homo sapiens;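 further: growth inhibition of human U-251 cells, read out through a cell viability assay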
Description: SANGER: Inhibition of human U251 cell growth in a cell viability assay.

[48] = tested on: SK-MM-2; conditions: Homo sapiens;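 further: growth inhibition of human SK-MM-2 cells, read out with a cell viability assay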
Description: SANGER: Inhibition of human SK-MM-2 cell growth in a cell viability assay.

[49] = tested on: LOUCY; conditions: Homo sapiens;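 further: growth inhibition of human LOUCY cells, read out with a cell viability assay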
Description: SANGER: Inhibition of human LOUCY cell growth in a cell viability assay.

[50] = tested on: Raji; conditions: Homo sapiens;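 further: cell viability assay measuring inhibition of Raji cell growth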
Description: SANGER: Inhibition of human Raji cell growth in a cell viability assay.

[51] = tested on: EHEB; conditions: Homo sapiens;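 further: growth inhibition of human EHEB cells, read out with a cell viability assay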
Description: SANGER: Inhibition of human EHEB cell growth in a cell viability assay.

[52] = tested on: NCI-H345; conditions: Homo sapiens;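 further: growth inhibition of NCI-H345 cells measured with a cell viability assay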
Description: SANGER: Inhibition of human NCI-H345 cell growth in a cell viability assay.

[53] = tested on: NCI-H1694; conditions: Homo sapiens;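 further: cell viability assay measuring inhibition of growth in human NCI-H1694 cells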
Description: SANGER: Inhibition of human NCI-H1694 cell growth in a cell viability assay.

[54] = tested on: RL; conditions: Homo sapiens
Description: SANGER: Inhibition of human RL cell growth in a cell viability assay.

[55] = tested on: EVSA-T; conditions: Homo sapiens;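 further: growth inhibition of EVSA-T cells, read out with a cell viability assay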
Description: SANGER: Inhibition of human EVSA-T cell growth in a cell viability assay.

[56] = tested on: LC4-1; conditions: Homo sapiens;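 further: growth inhibition of LC4-1 cells, read out with a cell viability assay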
Description: SANGER: Inhibition of human LC4-1 cell growth in a cell viability assay.

[57] = tested on: Kasumi 1; conditions: Homo sapiens;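 further: growth inhibition of human Kasumi-1 cells, read out by a cell viability assay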
Description: SANGER: Inhibition of human KASUMI-1 cell growth in a cell viability assay.

[58] = tested on: CMK; conditions: Homo sapiens;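 further: growth inhibition of CMK cells, read out as cell viability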
Description: SANGER: Inhibition of human CMK cell growth in a cell viability assay.

[59] = tested on: HCC1599; conditions: Homo sapiens
Description: SANGER: Inhibition of human HCC1599 cell growth in a cell viability assay.

[60] = tested on: KMS-12-PE; conditions: Homo sapiens
Description: SANGER: Inhibition of human KMS-12-PE cell growth in a cell viability assay.

[61] = tested on: NCI-H889; conditions: Homo sapiens
Description: SANGER: Inhibition of human NCI-H889 cell growth in a cell viability assay.

[62] = tested on: SNU-C1; conditions: Homo sapiens
Description: SANGER: Inhibition of human SNU-C1 cell growth in a cell viability assay.

[63] = tested on: LP-1; conditions: Homo sapiens
Description: SANGER: Inhibition of human LP-1 cell growth in a cell viability assay.

[64] = tested on: SIMA; conditions: Homo sapiens
Description: SANGER: Inhibition of human SIMA cell growth in a cell viability assay.

[65] = tested on: SR; conditions: Homo sapiens
Description: SANGER: Inhibition of human SR cell growth in a cell viability assay.

[66] = tested on: UACC-812; conditions: Homo sapiens
Description: SANGER: Inhibition of human UACC-812 cell growth in a cell viability assay.

Measured: IC50

O=c1cc(N2CCOCC2)oc2c(-c3cccc4c3sc3ccccc34)cccc12
1210 nM: [28]
867 nM: [15]
not listed: [48] | [49] | [50] | [51] | [52] | [53] | [54] | [55] | [56] | [57] | [58] | [59] | [60] | [61] | [62] | [63] | [64] | [65] | [66]
> 2000 nM: all other assays above

Cn1c(=O)n(-c2ccc(C(C)(C)C#N)cc2)c2c3cc(-c4cnc5ccccc5c4)ccc3ncc21 [DACTOLISIB]
73.4 nM: [32]
36.7 nM: [17]
528 nM: [2]
16.3 nM: [26]
109 nM: [43]
12 nM: [19]
21.9 nM: [46]
35.5 nM: [11]
412 nM: [29]
698 nM: [9]
23.9 nM: [14]
136 nM: [44]
180 nM: [16]
187 nM: [41]
185 nM: [25]
95.9 nM: [30]
599 nM: [24]
88.3 nM: [8]
895 nM: [45]
248 nM: [20]
286 nM: [21]
42.7 nM: [13]
15.5 nM: [28]
38.4 nM: [47]
87.5 nM: [1]
81.5 nM: [7]
37.9 nM: [23]
80.5 nM: [10]
48.4 nM: [15]
213 nM: [31]
122 nM: [37]
156 nM: [4]
49.1 nM: [38]
183 nM: [12]
12.2 nM: [22]
111 nM: [34]
35.4 nM: [42]
46.6 nM: [3]
105 nM: [33] | [39]
53.3 nM: [36]
106 nM: [5]
67.9 nM: [27]
47.8 nM: [6]
90.6 nM: [18]

Cc1nc(Nc2ncc(C(=O)Nc3c(C)cccc3Cl)s2)cc(N2CCN(CCO)CC2)n1 [DASATINIB]
> 1280 nM: [48] | [49] | [8] | [50] | [51] | [52] | [53] | [54] | [55] | [56] | [57] | [58] | [59] | [60] | [61] | [62] | [63] | [64] | [65]

CCn1c(-c2nonc2N)nc2cnc(Oc3cccc(NC(=O)c4ccc(OCCN5CCOCC5)cc4)c3)cc21 [GSK-269962A]
< 9.77 nM: [65]
1150 nM: [49]
1010 nM: [58]
> 2500 nM: [2] | [48] | [8] | [50] | [52] | [53] | [54] | [55] | [56] | [57] | [59] | [35] | [60] | [61] | [62] | [63] | [64] | [66]

CC(=O)c1c(C)c2cnc(Nc3ccc(N4CCNCC4)cn3)nc2n(C2CCCC2)c1=O [PALBOCICLIB]
1680 nM: [27] | [38]
1550 nM: [45]
2830 nM: [26]
3820 nM: [39]
1010 nM: [18]
1380 nM: [46]
814 nM: [47]
484 nM: [8]
1080 nM: [23]
900 nM: [11]
966 nM: [22]
2070 nM: [1]
2620 nM: [36]
937 nM: [19]
1470 nM: [13]
not listed: [14] | [25] | [35] | [40] | [48] | [49] | [50] | [51] | [52] | [53] | [54] | [55] | [56] | [57] | [58] | [59] | [60] | [61] | [62] | [63] | [64] | [65] | [66]
> 4000 nM: all other assays above

Cc1[nH]c(/C=C2\C(=O)Nc3ccc(S(=O)(=O)Cc4c(Cl)cccc4Cl)cc32)c(C)c1C(=O)N1CCC[C@@H]1CN1CCCC1 [PHA-665752]
> 2000 nM: [48] | [49] | [8] | [50] | [51] | [52] | [53] | [54] | [55] | [56] | [57] | [58] | [59] | [60] | [61] | [62] | [63] | [64] | [65] | [66]

CCCS(=O)(=O)Nc1ccc(F)c(C(=O)c2c[nH]c3ncc(Cl)cc23)c1F [PLX-4720]
1100 nM: [37]
8070 nM: [22]
674 nM: [14]
5980 nM: [28]
346 nM: [40]
6110 nM: [46]
not listed: [48] | [49] | [50] | [51] | [52] | [53] | [54] | [55] | [56] | [57] | [58] | [59] | [60] | [61] | [62] | [63] | [64] | [65] | [66]
> 10000 nM: all other assays above
